# Measured values published in US6608086B2, “Dihydropyridines and new uses thereof” (Synaptic Pharmaceutical Corporation, priority 1993, dated 2003).
# Structures can show the parent of a compound that is named as a salt.
row,SMILES,melting point
1,"CCC1=C(C(=O)NCCCN2CCC(c3ccccc3)(c3ccccc3)CC2)C(c2ccc(N)cc2)C(C(=O)OC)=C(C)N1 (stereo not shown) (as salt: salt) [Example 114, 4-(4-Aminophenyl)-2-ethyl-1,4-dihydro-5-methoxycarbonyl-6-methyl-3-(N-(3-(4,4-diphenylpiperidin-1-yl)propyl)carboxamido)-pyridine]",169 to 172 °C (dec.)
2,"COC(=O)C1=C(C)N(C)C(C)=C(C(=O)OCCCN2CCC(c3ccccc3)(c3ccccc3)CC2)C1c1ccc([N+](=O)[O-])cc1.Cl.O (stereo not shown) (hydrate or solvate) [Example 92, 1,4-Dihydro-5-methoxycarbonyl-1,2,6-trimethyl-4-(4-nitrophenyl)-3-[3-(4,4-diphenylpiperidin-1-yl)propoxy]carbonylpyridine hydrochloride hydrate]",127 to 128 °C
3,CCC1=C(C(=O)OCCC#N)C(c2ccc([N+](=O)[O-])cc2)C(C(=O)NCCCN2CCC(c3ccccc3)(c3ccccc3)CC2)=C(COC)N1 (stereo not shown) (hydrate or solvate) [Example 135],120 to 125 °C
4,"COC(=O)C1=C(C)NC(C)=C(C(=O)NCCCN2CCC(c3ccccc3)CC2)C1c1ccc([N+](=O)[O-])cc1 (racemic) (as salt: hydrochloride) (hydrate or solvate) [(±)-45, (±)-1,4-Dihydro-3-methoxycarbonyl-2,6-dimethyl-4-(4-nitrophenyl)-5-{N-[3-(4-phenylpiperidin-1-yl)propyl]}carboxamidopyridine hydrochloride hemihydrate]",160 °C
5,"CCC1=C(C(N)=O)C(c2ccc([N+](=O)[O-])cc2)C(C(=O)NCCCN2CCC(C#N)(c3ccccc3)CC2)=C(CC)N1 (racemic) (as salt: hydrochloride) (hydrate or solvate) [(±)-102, 5-Carboxamido-3-{N-[(4-cyano-4-phenylpiperidin-1-ly)propyl]carboxamido-2,6-diethyl-1,4-dihydro-4-(4-nitrophenyl)pyridine hydrochloride hydrate]",230 °C (dec.)
6,"CCOC(=O)C1(c2ccccc2)CCN(CCCNC(=O)C2=C(C)NC(C)=C(C(=O)NC)C2c2ccc([N+](=O)[O-])cc2)CC1 (stereo not shown) [Example 188, 1,4-Dihydro-2,6-dimethyl-3-{N-[3-(4-ethoxycarbonyl-4-phenyl-piperidin-1-yl)propyl]}carboxamide-5-(N-methyl)carboxam ido-4-(4nitrophenyl)pyridine]",112 to 113 °C
7,"CCNC(=O)C1=C(C)NC(C)=C(C(=O)NCCCN2CCC(C(=O)OC)(c3ccccc3)CC2)C1c1ccc([N+](=O)[O-])cc1 (stereo not shown) [Example 205, 1,4-Dihydro-2,6-dimethyl-5-(N-ethyl)carboxamido-3-{N-[3-(4-methoxycarbonyl-4-phenylpiperidin-1-yl)propyl]}carboxamido-4-(4-nitrophenyl)pyridine]",117 to 118 °C
